From patent publication US20240174657A1, “SELECTIVE ANGIOTENSIN II RECEPTOR LIGANDS” (priority 2021, published 2024)

What was measured:
CYP3A4 = biological target: T1, CYP3A4 (Homo sapiens, UniProt P08684); assay: CYP inhibition in human liver microsomes, midazolam substrate; assay type: in vitro ADME; details: probe midazolam, read-out: CYP3A4 midazolam Inh %
T1 construct: using isoform-specific substrates incubated with human liver microsomes; tissue Eurofins protocol ITEMG232; host or cells: human liver microsomes

CYP1A = biological target: T2, CYP1A (Homo sapiens, UniProt P05177); assay: CYP inhibition in human liver microsomes, phenacetin substrate; assay type: in vitro ADME; details: probe phenacetin, read-out: CYP1A Inh %
T2 construct: using isoform-specific substrates incubated with human liver microsomes; tissue Eurofins protocol ITEMG232; host or cells: human liver microsomes

[1] = biological target: T3, human recombinant AT2 receptor (Homo sapiens, UniProt P50052); assay: biochemical; assay type: binding; details: ligand 125I CGP 42112A; for IC50: test concentrations 1, 10, 100 and 1000 nM, C21* = mean of runs, read-out: AT2 GraFit IC50
T3 sequence (P50052 1-363): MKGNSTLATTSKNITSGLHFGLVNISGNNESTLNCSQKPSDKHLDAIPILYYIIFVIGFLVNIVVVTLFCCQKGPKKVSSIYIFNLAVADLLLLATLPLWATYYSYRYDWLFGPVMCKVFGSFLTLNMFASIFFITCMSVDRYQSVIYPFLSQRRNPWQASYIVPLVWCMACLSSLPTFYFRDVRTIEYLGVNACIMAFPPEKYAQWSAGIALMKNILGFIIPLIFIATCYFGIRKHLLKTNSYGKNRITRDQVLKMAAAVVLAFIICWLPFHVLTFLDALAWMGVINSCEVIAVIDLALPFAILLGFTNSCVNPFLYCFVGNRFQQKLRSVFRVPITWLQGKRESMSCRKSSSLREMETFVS

CYP2C8 = biological target: T4, CYP2C8 (Homo sapiens, UniProt P10632); assay: CYP inhibition in human liver microsomes, paclitaxel and amodiaquine substrates; assay type: in vitro ADME; details: probe paclitaxel and amodiaquine, read-out: CYP2C8 Inh %
T4 construct: using isoform-specific substrates incubated with human liver microsomes; tissue Eurofins protocol ITEMG232; host or cells: human liver microsomes
T4 sequence (P10632 1-490): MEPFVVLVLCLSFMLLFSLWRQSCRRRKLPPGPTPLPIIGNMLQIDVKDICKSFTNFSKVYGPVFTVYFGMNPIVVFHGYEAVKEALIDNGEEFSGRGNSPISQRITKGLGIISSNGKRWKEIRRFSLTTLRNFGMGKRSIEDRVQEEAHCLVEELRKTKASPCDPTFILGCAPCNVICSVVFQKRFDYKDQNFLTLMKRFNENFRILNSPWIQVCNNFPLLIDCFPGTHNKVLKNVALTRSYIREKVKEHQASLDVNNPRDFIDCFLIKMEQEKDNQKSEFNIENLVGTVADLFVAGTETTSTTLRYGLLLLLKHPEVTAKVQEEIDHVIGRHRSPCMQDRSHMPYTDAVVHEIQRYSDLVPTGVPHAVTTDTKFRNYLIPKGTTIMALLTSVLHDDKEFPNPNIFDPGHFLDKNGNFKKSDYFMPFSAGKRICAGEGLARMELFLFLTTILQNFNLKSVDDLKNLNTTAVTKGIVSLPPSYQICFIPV

CYP3A4&5 = assay: CYP inhibition in human liver microsomes, testosterone substrate; assay type: in vitro ADME; details: probe testosterone, read-out: CYP3A4&5 testosterone Inh %
CYP2D6 = biological target: T5, CYP2D6 (Homo sapiens, UniProt P10635); assay: CYP inhibition in human liver microsomes, dextromethorphan substrate; assay type: in vitro ADME; details: probe dextromethorphan, read-out: CYP2D6 Inh %
T5 construct: tissue Eurofins protocol ITEMG232; host or cells: human liver microsomes

CYP2C9 = biological target: T6, CYP2C9 (Homo sapiens, UniProt P11712); assay: CYP inhibition in human liver microsomes, diclofenac substrate; assay type: in vitro ADME; details: probe diclofenac, read-out: CYP2C9 Inh %
T6 construct: using isoform-specific substrates incubated with human liver microsomes; tissue Eurofins protocol ITEMG232; host or cells: human liver microsomes

[2] = biological target: T7, human recombinant AT1 receptor (Homo sapiens, UniProt P30556); assay: Binding to AT1 receptor, radiometric scintillation assay (Eurofins ITEM24)
T7 construct: Eurofins protocol ITEM24
T7 sequence (P30556 1-359): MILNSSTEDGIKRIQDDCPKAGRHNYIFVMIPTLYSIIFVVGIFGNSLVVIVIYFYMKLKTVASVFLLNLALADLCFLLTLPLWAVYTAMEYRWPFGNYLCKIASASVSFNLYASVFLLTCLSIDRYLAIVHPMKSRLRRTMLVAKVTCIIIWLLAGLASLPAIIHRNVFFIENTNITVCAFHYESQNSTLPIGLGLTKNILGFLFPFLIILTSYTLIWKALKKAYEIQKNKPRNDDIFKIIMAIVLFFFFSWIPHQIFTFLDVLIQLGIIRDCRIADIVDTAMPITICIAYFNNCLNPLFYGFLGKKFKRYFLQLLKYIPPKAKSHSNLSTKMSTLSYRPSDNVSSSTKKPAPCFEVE

CYP2B6 = biological target: T8, CYP2B6 (Homo sapiens, UniProt P20813); assay: CYP inhibition in human liver microsomes, bupropion substrate; assay type: in vitro ADME; details: probe bupropion, read-out: CYP2B6 Inh %
T8 construct: using isoform-specific substrates incubated with human liver microsomes; tissue Eurofins protocol ITEMG232; host or cells: human liver microsomes
T8 sequence (P20813 1-491): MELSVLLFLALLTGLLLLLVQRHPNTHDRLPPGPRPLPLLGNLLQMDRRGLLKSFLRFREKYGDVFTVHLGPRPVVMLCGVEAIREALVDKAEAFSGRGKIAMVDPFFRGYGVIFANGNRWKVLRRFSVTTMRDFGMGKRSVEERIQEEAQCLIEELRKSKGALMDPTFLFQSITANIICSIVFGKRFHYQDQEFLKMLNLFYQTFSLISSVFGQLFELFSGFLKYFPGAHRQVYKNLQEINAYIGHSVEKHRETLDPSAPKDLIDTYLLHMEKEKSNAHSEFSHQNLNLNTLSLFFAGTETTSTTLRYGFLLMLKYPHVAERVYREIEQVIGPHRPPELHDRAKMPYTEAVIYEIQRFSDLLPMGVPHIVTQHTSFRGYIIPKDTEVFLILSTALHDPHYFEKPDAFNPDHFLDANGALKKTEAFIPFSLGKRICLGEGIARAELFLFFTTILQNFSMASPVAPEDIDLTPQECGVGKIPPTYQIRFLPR

CYP2C19 = biological target: T9, CYP2C19 (Homo sapiens, UniProt P33261); assay: CYP inhibition in human liver microsomes, omeprazole substrate; assay type: in vitro ADME; details: probe omeprazole, read-out: CYP2C19 Inh %
T9 construct: using isoform-specific substrates incubated with human liver microsomes; tissue Eurofins protocol ITEMG232; host or cells: human liver microsomes

[3] = Metabolic stability in pooled human liver microsomes; assay type: in vitro ADME; details: human liver microsomes 0.5 mg/mL, 1 uM test compound, 37° C.; for T1/2, + NaDPH: with 1 mM NADPH; for half-life at 1 uM: pooled human liver microsomes, without NADPH, read-out: T1/2, no NaDPH
Description: Pooled human liver microsomes in PBS at a concentration of 0.5 mg/mL was incubated with or without 1 mM NADPH for 70 min at 37° C. Test compound was added after 10 minutes to a final concentration of 1 uM. Samples were withdrawn at 0, 5, 15 and 60 minutes and added to test tubes containing acetonitrile, to stop the reaction, and with terfenadine, used as internal standard. After centrifugation at 10 000×g for 5 minutes the supernatant was diluted 1:1 with 1% formic acid. Samples were separated on a reverse phase column and detected by triple quadrupole MSMS (Agilant model 6540). The concentration of the parent compound at the different time points was measured with an external standard curve using terfenadine as internal standard and the initial metabolic rate in the presence or absence of NADPH calculated.

T1 sequence (P08684 whole entry, canonical isoform): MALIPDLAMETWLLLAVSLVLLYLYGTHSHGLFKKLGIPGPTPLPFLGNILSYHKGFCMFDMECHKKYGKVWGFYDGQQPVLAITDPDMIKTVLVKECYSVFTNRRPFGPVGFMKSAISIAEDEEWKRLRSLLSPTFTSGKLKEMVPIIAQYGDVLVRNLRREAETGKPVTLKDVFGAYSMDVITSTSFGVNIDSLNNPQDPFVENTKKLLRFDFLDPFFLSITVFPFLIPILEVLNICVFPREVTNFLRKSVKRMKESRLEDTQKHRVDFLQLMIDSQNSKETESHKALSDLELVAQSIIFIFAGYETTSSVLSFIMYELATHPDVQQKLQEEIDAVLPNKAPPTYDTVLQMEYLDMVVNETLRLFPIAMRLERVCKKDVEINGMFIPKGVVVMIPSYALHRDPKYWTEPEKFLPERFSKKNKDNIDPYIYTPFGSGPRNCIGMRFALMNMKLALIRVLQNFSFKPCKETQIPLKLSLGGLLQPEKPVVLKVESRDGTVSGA
T9 sequence (P33261 whole entry, canonical isoform): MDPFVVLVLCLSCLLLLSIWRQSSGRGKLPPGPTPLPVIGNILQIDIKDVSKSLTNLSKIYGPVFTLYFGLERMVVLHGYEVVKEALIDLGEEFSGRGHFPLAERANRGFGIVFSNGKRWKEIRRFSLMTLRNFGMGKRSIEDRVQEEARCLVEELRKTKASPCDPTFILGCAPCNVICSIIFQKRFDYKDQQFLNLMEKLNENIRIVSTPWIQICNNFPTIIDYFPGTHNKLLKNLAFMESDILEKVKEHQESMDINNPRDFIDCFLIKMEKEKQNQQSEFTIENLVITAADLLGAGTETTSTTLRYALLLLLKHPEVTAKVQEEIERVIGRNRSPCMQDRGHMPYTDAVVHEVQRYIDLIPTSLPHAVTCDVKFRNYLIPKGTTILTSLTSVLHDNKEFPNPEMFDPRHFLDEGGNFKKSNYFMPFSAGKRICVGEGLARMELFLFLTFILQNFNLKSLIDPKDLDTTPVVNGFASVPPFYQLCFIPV
T6 sequence (P11712 whole entry, canonical isoform): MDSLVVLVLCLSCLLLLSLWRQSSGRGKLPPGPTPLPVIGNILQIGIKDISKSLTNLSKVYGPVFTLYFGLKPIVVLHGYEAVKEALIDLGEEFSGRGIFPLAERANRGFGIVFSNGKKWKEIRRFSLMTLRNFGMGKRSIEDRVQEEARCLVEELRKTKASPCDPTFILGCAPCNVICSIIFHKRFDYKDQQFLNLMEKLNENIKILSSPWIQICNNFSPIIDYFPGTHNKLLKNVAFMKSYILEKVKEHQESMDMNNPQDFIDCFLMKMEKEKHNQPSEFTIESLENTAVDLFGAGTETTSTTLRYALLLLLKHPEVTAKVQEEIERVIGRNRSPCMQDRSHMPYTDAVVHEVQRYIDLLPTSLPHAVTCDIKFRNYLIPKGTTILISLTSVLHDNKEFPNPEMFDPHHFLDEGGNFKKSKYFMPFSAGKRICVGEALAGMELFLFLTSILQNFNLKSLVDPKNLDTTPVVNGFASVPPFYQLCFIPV
T2 sequence (P05177 whole entry, canonical isoform): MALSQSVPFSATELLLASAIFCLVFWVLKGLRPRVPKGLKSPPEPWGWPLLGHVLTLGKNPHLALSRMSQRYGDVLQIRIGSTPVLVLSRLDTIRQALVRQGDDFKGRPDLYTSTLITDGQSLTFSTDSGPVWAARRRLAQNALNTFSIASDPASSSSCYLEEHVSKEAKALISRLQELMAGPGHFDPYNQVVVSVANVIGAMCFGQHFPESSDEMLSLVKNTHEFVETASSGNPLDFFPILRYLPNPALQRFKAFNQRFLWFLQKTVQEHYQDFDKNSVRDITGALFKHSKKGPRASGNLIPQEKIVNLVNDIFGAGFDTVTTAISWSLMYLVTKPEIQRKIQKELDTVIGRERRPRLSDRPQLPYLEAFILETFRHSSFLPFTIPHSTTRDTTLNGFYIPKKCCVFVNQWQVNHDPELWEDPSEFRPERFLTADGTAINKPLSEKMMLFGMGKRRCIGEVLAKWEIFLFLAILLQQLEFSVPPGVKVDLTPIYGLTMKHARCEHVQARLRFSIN
T5 sequence (P10635 whole entry): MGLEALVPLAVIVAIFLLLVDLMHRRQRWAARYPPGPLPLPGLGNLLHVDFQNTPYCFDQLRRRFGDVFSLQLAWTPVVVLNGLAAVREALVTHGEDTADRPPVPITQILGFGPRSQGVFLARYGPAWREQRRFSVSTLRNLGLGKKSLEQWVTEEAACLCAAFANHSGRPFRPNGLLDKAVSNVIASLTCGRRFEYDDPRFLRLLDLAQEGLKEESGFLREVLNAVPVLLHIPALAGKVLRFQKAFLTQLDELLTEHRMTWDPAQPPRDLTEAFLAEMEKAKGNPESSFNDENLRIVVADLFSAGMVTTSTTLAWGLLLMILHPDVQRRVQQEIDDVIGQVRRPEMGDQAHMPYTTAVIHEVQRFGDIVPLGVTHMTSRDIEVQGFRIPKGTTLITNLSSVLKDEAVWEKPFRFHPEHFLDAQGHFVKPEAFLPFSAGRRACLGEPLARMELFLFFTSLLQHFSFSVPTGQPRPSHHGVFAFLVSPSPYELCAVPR

| Structure (SMILES) | inhibition at 10 µM (CYP3A4) | inhibition at 10 µM (CYP1A) | IC50 [1] | inhibition at 10 µM (CYP2C8) | inhibition at 10 µM (CYP3A4&5) | inhibition at 10 µM (CYP2D6) | inhibition at 10 µM (CYP2C9) | IC50 [2] | inhibition at 10 µM (CYP2B6) | inhibition at 10 µM (CYP2C19) | T1/2, + NaDPH [3] | half-life at 1 uM [3] | Ki ([1]; seven-point dose-response curve, read-out: AT2R Ki) |
| --- | --- | --- | --- | --- | --- | --- | --- | --- | --- | --- | --- | --- | --- |
| Cc1nccn1Cc1c(F)cc(-c2cc(CC(C)C)sc2S(=O)(=O)NC(=O)NCCO)cc1F [Example 5, 1-[[3-[3,5-Difluoro-4-[(2-methylimidazol-1-yl)methyl]phenyl]-5-isobutyl-2-thienyl]sulfonyl]-3-(2-hydroxyethyl)urea] | 44.6% | 8% | 18.4 nM | 36.2% | 27.5% | 36.3% | 38% | 49000 nM | 27.4% | -30.1% | >1 h | > 1 h | – |
| CC(C)Cc1cc(-c2ccc(Cn3ccnc3C(C)(C)C)c(F)c2)c(S(=O)(=O)NC(=O)NCCO)s1 [Example 6, 1-[[3-[4-[(2-tert-Butylimidazol-1-yl)methyl]-3-fluoro-phenyl]-5-isobutyl-2-thienyl]sulfonyl]-3-(2-hydroxyethyl)urea] | 13% | 3.5% | 0.64 nM | 73.8% | 4.5% | 10.1% | 11.5% | 2100 nM | 8.2% | 14.7% | >1 h | > 1 h | – |
| CC(C)Cc1cc(-c2ccc(Cn3ccnc3C(C)(C)C)c(F)c2)c(S(=O)(=O)NC(=O)NCC(C)(C)O)s1 [Example 7, 1-[[3-[4-[(2-tert-Butylimidazol-1-yl)methyl]-3-fluoro-phenyl]-5-isobutyl-2-thienyl]sulfonyl]-3-(2-hydroxy-2-methyl-propyl)urea] | 7.7% | 2.7% | 0.95 nM | 69.8% | 2.8% | 3.9% | 9.9% | 1900 nM | 17.4% | 27.4% | >1 h | > 1 h | – |

Results, then the compound that gave them:

| inhibition at 10 µM (CYP3A4) | inhibition at 10 µM (CYP1A) | IC50 [1] | inhibition at 10 µM (CYP2C8) | inhibition at 10 µM (CYP3A4&5) | inhibition at 10 µM (CYP2D6) | inhibition at 10 µM (CYP2C9) | IC50 [2] | inhibition at 10 µM (CYP2B6) | inhibition at 10 µM (CYP2C19) | T1/2, + NaDPH [3] | half-life at 1 uM [3] | Ki ([1]; seven-point dose-response curve, read-out: AT2R Ki) | Structure (SMILES) |
| --- | --- | --- | --- | --- | --- | --- | --- | --- | --- | --- | --- | --- | --- |
| 23.7% | 11.8% | 2.5 nM | 2.3% | 22.3% | 8% | 26.8% | 9500 nM | 14% | 17.7% | >1 h | > 1 h | – | CCc1nccn1Cc1ccc(-c2cc(CC(C)C)sc2S(=O)(=O)NC(=O)NCCO)cc1F [Example 8] |
| – | – | 1.9 nM | – | – | – | – | 8400 nM | – | – | >1 h | > 1 h | 0.95 nM | CC(C)Cc1cc(-c2ccc(Cn3ccnc3C(C)C)c(F)c2)c(S(=O)(=O)NC(=O)NCCO)s1 [Example 10, 1-[[3-[3-Fluoro-4-[(2-isopropylimidazol-1-yl)methyl]phenyl]-5-isobutyl-2-thienyl]sulfonyl]-3-(2-hydroxyethyl)urea] |
